Data reported in publication PMC8795197, “Safety and activity of WX-0593 (Iruplinalkib) in patients with ALK- or ROS1-rearranged advanced non-small cell lung cancer: a phase 1 dose-escalation and dose-expansion trial” (Signal Transduction and Targeted Therapy, 2022).
Where two headings read alike, the source gives them in different places.

What was measured:
[1] = test system: Ba/F3 CD74-ROS1-L1951R; test: Growth of transfected Ba/F3 cells (CellTiter-Glo, 3 days); type: cell-based; conditions: Mus musculus, BaF3
Procedure: (§1) Harvest cells during the logarithmic growth period and count cells using blood counting chamber. Adjust cell concentration with culture medium. Add 90µl cell suspensions to two 96-well plates to the final cell density as described before. Incubate the plate overnight in humidified incubator at 37℃ with 5% CO2. Dispense 10µl drug solution (10×) to each well (triplicate for each concentration), and the DMSO final concentration in culture medium is 0.1% [v/v]. Culture the plates for 3 days.On Day 3, Read luminescent using Multi Label Reader. The software of GraphPad Prism was used to calculate IC50. The graphical curves were fitted using a nonlinear regression model with a sigmoidal dose response.

[2] = test system: Ba/F3 SLC34A2-ROS1-L2026M; test: as above; type: cell-based; conditions: Mus musculus, BaF3
Procedure: as §1

[3] = test system: Ba/F3 CD74-ROS1-D2033N; test: as above; type: cell-based; conditions: Mus musculus, BaF3
Procedure: as §1

[4] = test system: Ba/F3 SLC34A2-ROS1; test: as above; type: cell-based; conditions: Mus musculus, BaF3
Procedure: as §1

[5] = test system: Ba/F3 SLC34A2-ROS1-G2032R; test: as above; type: cell-based; conditions: Mus musculus, BaF3
Procedure: as §1

[6] = test system: LU-01-0319R NSCLC PDX; test: PDX model resistant to crizotinib; type: in vivo; conditions: WX-0593 2.5, 5, 10 mg/kg; ceritinib 10/20 mg/kg; brigatinib 10 mg/kg
[7] = test system: NSCLC patients with ALK or ROS1 rearrangement; conditions: cited from earlier work
[8] = test system: Ba/F3 ALK-L1196M; test: Growth of transfected Ba/F3 cells (CellTiter-Glo, 3 days); type: cell-based; conditions: Mus musculus, BaF3
Procedure: as §1, with “days. On” for “days.On”

[9] = test system: Ba/F3 ALK-F1174L; test: as above; type: cell-based; conditions: Mus musculus, BaF3
Procedure: as §1, with “days. On” for “days.On”

[10] = test system: Ba/F3 ALK-G1202R; test: as above; type: cell-based; conditions: Mus musculus, BaF3
Procedure: as §1, with “days. On” for “days.On”

[11] = test system: Ba/F3 ALK-I1171T; test: as above; type: cell-based; conditions: Mus musculus, BaF3
Procedure: as §1, with “days. On” for “days.On”

[12] = test system: Ba/F3 ALK-I1171N; test: as above; type: cell-based; conditions: Mus musculus, BaF3
Procedure: as §1, with “days. On” for “days.On”

[13] = test system: Ba/F3 ALK-V1180L; test: as above; type: cell-based; conditions: Mus musculus, BaF3
Procedure: as §1, with “days. On” for “days.On”

[14] = test system: Ba/F3 ALK-G1269A; test: as above; type: cell-based; conditions: Mus musculus, BaF3
Procedure: as §1, with “days. On” for “days.On”

[15] = test system: Ba/F3 ALK-L1152R; test: as above; type: cell-based; conditions: Mus musculus, BaF3
Procedure: as §1, with “days. On” for “days.On”

[16] = test system: Ba/F3 ALK-T1151Tins; test: as above; type: cell-based; conditions: Mus musculus, BaF3
Procedure: as §1, with “days. On” for “days.On”

[17] = test system: Ba/F3 ALK-G1202del; test: as above; type: cell-based; conditions: Mus musculus, BaF3
Procedure: as §1, with “days. On” for “days.On”

[18] = test system: Ba/F3 ALK-C1156Y; test: as above; type: cell-based; conditions: Mus musculus, BaF3
Procedure: as §1, with “days. On” for “days.On”

[19] = test system: Ba/F3 ALK-I1171S; test: as above; type: cell-based
Procedure: as §1, with “days. On” for “days.On”

[20] = test system: Ba/F3 ALK-L1152P; test: as above; type: cell-based; conditions: Mus musculus, BaF3
Procedure: as §1, with “days. On” for “days.On”

[21] = test system: Ba/F3 ALK-F1174V; test: as above; type: cell-based; conditions: Mus musculus, BaF3
Procedure: as §1, with “days. On” for “days.On”

[22] = test system: Ba/F3 ALK-F1174C; test: as above; type: cell-based
Procedure: as §1, with “days. On” for “days.On”

[23] = test system: Ba/F3 ALK-WT; test: as above; type: cell-based; conditions: Mus musculus, BaF3
Procedure: as §1, with “days. On” for “days.On”

[24] = test system: Ba/F3 CD74-ROS1-S1986Y; test: as above; type: cell-based; conditions: Mus musculus, BaF3
Procedure: as §1

[25] = test system: Ba/F3 CD74-ROS1-S1986F; test: as above; type: cell-based; conditions: Mus musculus, BaF3
Procedure: as §1

[26] = test system: patients treated with ALK TKIs; conditions: cited from earlier work

C[C@@H](Oc1cc(-c2cnn(C3CCNCC3)c2)cnc1N)c1c(Cl)ccc(F)c1Cl [Crizotinib]
IC50 [2]: 162 nM
IC50 [4]: 8 nM
anti-tumor effect [6]: resistant

C[C@@H]1CN(C(=O)c2ccc(NC(=O)c3cc(O[C@H](C)c4c(Cl)ccc(F)c4Cl)c(N)nn3)cc2)C[C@H](C)N1 [Ensartinib]
ORR ([7]; ALK-rearranged patients): 60%
IC50 ([8]; ALK-L1196M, read-out: IC50): 98 nM
IC50 ([9]; ALK-F1174L, read-out: IC50): 29 nM
IC50 ([10]; ALK-G1202R, read-out: IC50): 409 nM
IC50 ([11]; ALK-I1171T, read-out: IC50): 28 nM
IC50 ([12]; ALK-I1171N, read-out: IC50): 18.4 nM
IC50 ([13]; ALK-V1180L, read-out: IC50): 16.6 nM
IC50 ([14]; ALK-G1269A, read-out: IC50): 212 nM
IC50 ([15]; ALK-L1152R, read-out: IC50): 71.4 nM
IC50 ([16]; ALK-T1151Tins, read-out: IC50): 42 nM
IC50 ([17]; ALK-G1202del, read-out: IC50): 932 nM
IC50 ([18]; ALK-C1156Y, read-out: IC50): 17 nM
IC50 ([19]; Mus musculus, BaF3, ALK-I1171S, first listing (r12), read-out: IC50): 39 nM
IC50 ([19]; Mus musculus, BaF3, ALK-I1171S, second listing (r19), read-out: IC50): 41.5 nM
IC50 ([20]; ALK-L1152P, read-out: IC50): 25.7 nM
IC50 ([21]; ALK-F1174V, read-out: IC50): 54.5 nM
IC50 ([22]; Mus musculus, BaF3, ALK-F1174C, first listing (r10), read-out: IC50): 62 nM
IC50 ([22]; Mus musculus, BaF3, ALK-F1174C, second listing (r15), read-out: IC50): 62.2 nM
IC50 ([23]; ALK-WT, read-out: IC50): 14 nM
IC50 [24]: 189 nM
IC50 [1]: 970 nM
IC50 [2]: 278 nM
IC50 [3]: 195 nM
IC50 [4]: 49 nM
IC50 [5]: 1640 nM
IC50 [25]: 192 nM
rash, % of patients [26]: 56%

C[C@H]1Oc2cc(cnc2N)-c2c(nn(C)c2C#N)CN(C)C(=O)c2ccc(F)cc21 [Lorlatinib]
ORR ([7]; ALK TKI-naive patients with ROS1 rearrangement): 62%
ORR ([7]; ROS1 rearrangement, crizotinib as the only TKI): 35%
IC50 [8]: 54 nM
IC50 [9]: 4 nM
IC50 [10]: 26 nM
IC50 [11]: 19 nM
IC50 [12]: 41.1 nM
IC50 [13]: 5.2 nM
IC50 [14]: 35 nM
IC50 [15]: 17.4 nM
IC50 [16]: 7 nM
IC50 [17]: 215 nM
IC50 [18]: 4 nM
IC50 [19]: 52.8 nM
IC50 ([19]; Mus musculus, BaF3): 33 nM
IC50 [20]: 4.6 nM
IC50 [21]: 16.1 nM
IC50 [22]: 15.9 nM
IC50 ([22]; Mus musculus, BaF3): 11 nM
IC50 [23]: 4 nM
IC50 [24]: 1.5 nM
IC50 [1]: 5.1 nM
IC50 [2]: < 1 nM
IC50 [3]: 1.7 nM
IC50 [4]: < 1 nM
IC50 [5]: 197 nM
IC50 [25]: 1.1 nM
